In patent US9464110B2, “Acyl dipeptide derivative” (AJINOMOTO CO., INC., priority 2012, dated 2016):
In brackets after ≈: the same amount, converted by molar mass. Where a SMILES comes first, the peptide text is derived from it. The star is where a group is joined. Decanoyl = CCCCCCCCCC(=O)*

Assays:
[1] = test system: Trichophyton mentagrophytes; assay: minimal growth inhibitory concentration (MIC) test, agar dilution; format: cell-based; conditions: 168 h, Sabouraud glucose agar medium, 25° C., 7 days, read-out: minimal growth inhibitory concentration against Trichophyton mentagrophytes
Procedure: (§1) The compound of Synthetic Example 1 was subjected to a minimal growth inhibitory concentration (MIC) test against Propionibacterium acnes (P. acnes) and Trichophyton mentagrophytes (T. mentagrophytes). The test method is shown below. (1) Preparation of Test Bacterial Culture Propionibacterium acnes: Anaerobically cultured in a GAM agar medium at 35° C. for 48 hr. A part thereof was transplanted into a GAM bouillon medium, and anaerobically cultured at 35° C. for 24 hr. The culture medium was diluted with GAM bouillon medium to adjust to about 10^6 cells/mL and used as a test bacterial culture. Trichophyton mentagrophytes: Test bacteria were cultured in a Sabouraud glucose agar medium at 25° C. for 7-14 days, spore and hypha pick were scraped with a platinum loop, suspended in polysorbate 80 0.05% sterile saline and ground in a homogenizer. The solution was filtered through sterile gauze folded in four, and diluted with polysorbate 80 0.05% sterile saline to adjust to about 10^6 cells/mL and used as a test bacterial culture. (2) Preparation of Antimicrobial Agent Dilution Solution A sample was diluted with sterile purified water to prepare a 100000-1000 μg (active ingredient)/mL dilution series. (3) Preparation of Antimicrobial Agent-Added Agar Medium The agar medium was dispensed by 9.0 mL into a test tube and, after autoclave sterilization, and incubated in a molten state at 50° C. […]

Propionibacterium acnes = assay: as above; format: cell-based; conditions: Cutibacterium acnes; GAM agar medium, 35° C., 48 hr anaerobic culture; read-out: minimal growth inhibitory concentration against Propionibacterium acnes
Procedure: as §1

MIC [1]: 1000 to 1500 µg/mL (≈ 2.73 to 4.09 mM)
MIC (Propionibacterium acnes): 2000 to 3000 µg/mL (≈ 5.46 to 8.19 mM)
SMILES: CCCCCCCCCC(=O)N1CCC[C@H]1C(=O)N1CCC[C@H]1C(=O)O [Synthetic Example 1, decanoyl prolylproline] (Decanoyl-Pro-Pro-OH)
